Data from US10131652B2, “Pyrimidinyloxy benzene derivatives as herbicides” (E. I. DU PONT DE NEMOURS AND COMPANY, priority 2014, dated 2018).

Tests used:
Format in all cases: in vivo
[1] = test system: galium (catchweed bedstraw, Galium aparine); assay: Test B postemergence plant response
Method in brief: (§1)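 Weeds grown in loam soil/sand pots were sprayed postemergence at 2 to 10 cm height, one- to two-leaf stage. After approximately 10 days in greenhouse, injury was rated visually against untreated controls on a 0 (no effect) to 100 (complete control) scale; dash means no test result.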

[2] = test system: blackgrass (Alopecurus myosuroides); assay: Test B postemergence plant response
Method in brief: as §1

[3] = test system: pigweed (Amaranthus retroflexus); assay: Test B pre-/postemergence plant response
Method in brief: (§2)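 Seeds in loam–sand blend given preemergence soil spray; separately, plants at one- to two-leaf stage (2–10 cm) sprayed postemergence, compounds in non-phytotoxic solvent with surfactant. Injury rated visually versus untreated controls after ~10 days in greenhouse, 0 (no effect) to 100 (complete control).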

[4] = test system: barnyardgrass (Echinochloa crus-galli); assay: Test B pre-/postemergence plant response
Method in brief: as §2

[5] = test system: wheat (Triticum aestivum); assay: Test B pre-/postemergence plant response
Method in brief: as §2

[6] = test system: giant foxtail (Setaria faberii); assay: Test B pre-/postemergence plant response
Method in brief: as §2

[7] = test system: ragweed (common ragweed, Ambrosia elatior); assay: Test B pre-/postemergence plant response
Method in brief: as §2

corn (Zea mays) = assay: Test B pre-/postemergence plant response
Method in brief: as §2

kochia (Kochia scoparia) = assay: Test B pre-/postemergence plant response
Method in brief: as §2

[8] = test system: Italian ryegrass (Lolium multiflorum); assay: Test B pre-/postemergence plant response
Method in brief: as §2

[9] = test system: small-flower umbrella sedge (Cyperus difformis); assay: Test C flooded paddy test plant response; conditions: Flood, 250 g ai/ha; scale of 0 to 100 where 0 is no effect and 100 is complete control; 13 to 15 days
Method in brief: (§3)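 Plants grown to 2-leaf stage, flooded 3 cm above soil; compounds applied directly into paddy water, depth kept throughout. Visual rating versus controls after 13 to 15 days in greenhouse, 0 (no effect) to 100 (complete control).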

[10] = test system: barnyardgrass (Echinochloa crus-galli); assay: Test C flooded paddy test plant response; conditions: Flood, 250 g ai/ha; scale of 0 to 100 where 0 is no effect and 100 is complete control; 13 to 15 days
Method in brief: as §3

rice (Oryza sativa) = assay: Test C flooded paddy test plant response; conditions: Flood, 250 g ai/ha; scale of 0 to 100 where 0 is no effect and 100 is complete control; 13 to 15 days
Method in brief: as §3

[11] = test system: ducksalad (Heteranthera limosa); assay: Test C flooded paddy test plant response; conditions: Flood, 250 g ai/ha; scale of 0 to 100 where 0 is no effect and 100 is complete control; 13 to 15 days
Method in brief: as §3

[12] = 125 g ai/ha, postemergence, 0 to 100 scale, 0 no effect, 100 complete control
[13] = Postemergence, 31 g ai/ha, 0 to 100 scale (0 no effect, 100 complete control)
[14] = 31 g ai/ha, Preemergence, 0 to 100 scale where 0 is no effect and 100 is complete control
[15] = Preemergence, 125 g ai/ha, 0 to 100 scale (0 no effect, 100 complete control)
[16] = 500 g ai/ha, postemergence, 0 to 100 scale, 0 no effect, 100 complete control
[17] = Preemergence, 500 g ai/ha, 0 to 100 scale where 0 is no effect and 100 is complete control

| Structure (SMILES) | Plant response rating, Galium [1, 12] | Plant response rating, Blackgrass [2, 12] | Plant response rating, Pigweed [3, 12] | Pigweed plant response rating [3, 15] | Plant response rating, Barnyardgrass [4, 12] | Barnyardgrass plant response rating [4, 15] | Plant response rating, Wheat [5, 12] | Plant response rating, Foxtail, Giant [6, 12] | Foxtail, Giant plant response rating [6, 15] | Plant response rating, Ragweed [7, 12] | Ragweed plant response rating [7, 15] | Plant response rating, Corn (corn (Zea mays); [12]) | Plant response rating, Kochia (kochia (Kochia scoparia); [12]) | Kochia plant response rating (kochia (Kochia scoparia); [15]) | Plant response rating, Ryegrass, Italian [8, 12] | Ryegrass, Italian plant response rating [8, 15] | Sedge, Umbrella plant response rating [9] | Barnyardgrass plant response rating [10] | Rice plant response rating (rice (Oryza sativa)) | Ducksalad plant response rating [11] | other results |
| --- | --- | --- | --- | --- | --- | --- | --- | --- | --- | --- | --- | --- | --- | --- | --- | --- | --- | --- | --- | --- | --- |
| Cc1csc(-c2ccccc2Oc2ncc(Cl)cn2)c1 [Compound 216] | 50 | 10 | 30 | 0 | 10 | 10 | 0 | 0 | 0 | 0 | 0 | 10 | 20 | 0 | 0 | 0 | 0 | 0 | 0 | 0 | Plant response rating, Galium [1, 13]: 20; Plant response rating, Blackgrass [2, 13]: 0; Plant response rating, Pigweed [3, 14]: 0; Plant response rating, Pigweed [3, 13]: 10; Plant response rating, Barnyardgrass [4, 14]: 0; Plant response rating, Barnyardgrass [4, 13]: 10; Plant response rating, Wheat [5, 13]: 0; Plant response rating, Foxtail, Giant [6, 14]: 0; Plant response rating, Foxtail, Giant [6, 13]: 0; Plant response rating, Ragweed [7, 14]: 0; Plant response rating, Ragweed [7, 13]: 0; Plant response rating, Corn (corn (Zea mays); [13]): 0; Plant response rating, Kochia (kochia (Kochia scoparia); [14]): 0; Plant response rating, Kochia (kochia (Kochia scoparia); [13]): 10; Plant response rating, Ryegrass, Italian [8, 14]: 0; Plant response rating, Ryegrass, Italian [8, 13]: 0 |
| Fc1cccc(Oc2ncc(Cl)cn2)c1-c1cn(CC(F)(F)F)cn1 [Compound 217] | 10 | 0 | 10 | 10 | 0 | 0 | 0 | 0 | 0 | 10 | 0 | 0 | 10 | 0 | 0 | 0 | 0 | 20 | 0 | 40 | Plant response rating, Galium [1, 16]: 30; Plant response rating, Blackgrass [2, 16]: 0; Plant response rating, Pigweed [3, 16]: 60; Plant response rating, Pigweed [3, 17]: 70; Plant response rating, Barnyardgrass [4, 16]: 0; Plant response rating, Barnyardgrass [4, 17]: 10; Plant response rating, Wheat [5, 16]: 0; Plant response rating, Foxtail, Giant [6, 16]: 0; Plant response rating, Foxtail, Giant [6, 17]: 30; Plant response rating, Ragweed [7, 16]: 30; Plant response rating, Ragweed [7, 17]: 0; Plant response rating, Corn (corn (Zea mays); [16]): 0; Plant response rating, Kochia (kochia (Kochia scoparia); [16]): 30; Plant response rating, Kochia (kochia (Kochia scoparia); [17]): 0; Plant response rating, Ryegrass, Italian [8, 16]: 0; Plant response rating, Ryegrass, Italian [8, 17]: 10 |
| CC(=O)c1cc(-c2ccccc2Oc2ncc(Cl)cn2)on1 [Compound 218] | 10 | 0 | 40 | 90 | 0 | 50 | 0 | 0 | 60 | 0 | 0 | 0 | 0 | 0 | 0 | 0 | 0 | 0 | 0 | 0 | Plant response rating, Galium [1, 13]: 0; Plant response rating, Blackgrass [2, 13]: 0; Plant response rating, Pigweed [3, 14]: 0; Plant response rating, Pigweed [3, 13]: 0; Plant response rating, Barnyardgrass [4, 14]: 0; Plant response rating, Barnyardgrass [4, 13]: 0; Plant response rating, Wheat [5, 13]: 0; Plant response rating, Foxtail, Giant [6, 14]: 0; Plant response rating, Foxtail, Giant [6, 13]: 0; Plant response rating, Ragweed [7, 14]: 0; Plant response rating, Ragweed [7, 13]: 0; Plant response rating, Corn (corn (Zea mays); [13]): 0; Plant response rating, Kochia (kochia (Kochia scoparia); [14]): 0; Plant response rating, Kochia (kochia (Kochia scoparia); [13]): 0; Plant response rating, Ryegrass, Italian [8, 14]: 0; Plant response rating, Ryegrass, Italian [8, 13]: 0 |
| COc1ccnc(-c2ccccc2Oc2ncc(Cl)cn2)c1 [Compound 219] | 30 | 0 | 10 | 0 | 0 | 0 | 0 | 0 | 0 | 30 | 0 | 0 | 0 | 0 | 0 | 0 | 0 | 0 | 0 | 0 | Plant response rating, Galium [1, 13]: 20; Plant response rating, Blackgrass [2, 13]: 0; Plant response rating, Pigweed [3, 14]: 0; Plant response rating, Pigweed [3, 13]: 10; Plant response rating, Barnyardgrass [4, 14]: 0; Plant response rating, Barnyardgrass [4, 13]: 0; Plant response rating, Wheat [5, 13]: 0; Plant response rating, Foxtail, Giant [6, 14]: 0; Plant response rating, Foxtail, Giant [6, 13]: 0; Plant response rating, Ragweed [7, 14]: 0; Plant response rating, Ragweed [7, 13]: 20; Plant response rating, Corn (corn (Zea mays); [13]): 0; Plant response rating, Kochia (kochia (Kochia scoparia); [14]): 0; Plant response rating, Kochia (kochia (Kochia scoparia); [13]): 0; Plant response rating, Ryegrass, Italian [8, 14]: 0; Plant response rating, Ryegrass, Italian [8, 13]: 0 |
| N#Cc1cc(-c2c(F)cccc2Oc2ncc(Cl)cn2)no1 [Compound 222] | 90 | 10 | 100 | 90 | 0 | 0 | 20 | 0 | 0 | 20 | 0 | 30 | 30 | 0 | 0 | 0 | 0 | 0 | 0 | 30 | Plant response rating, Galium [1, 13]: 30; Plant response rating, Blackgrass [2, 13]: 0; Plant response rating, Pigweed [3, 14]: 20; Plant response rating, Pigweed [3, 13]: 30; Plant response rating, Barnyardgrass [4, 14]: 0; Plant response rating, Barnyardgrass [4, 13]: 0; Plant response rating, Wheat [5, 13]: 0; Plant response rating, Foxtail, Giant [6, 14]: 0; Plant response rating, Foxtail, Giant [6, 13]: 0; Plant response rating, Ragweed [7, 14]: 0; Plant response rating, Ragweed [7, 13]: 0; Plant response rating, Corn (corn (Zea mays); [13]): 0; Plant response rating, Kochia (kochia (Kochia scoparia); [14]): 0; Plant response rating, Kochia (kochia (Kochia scoparia); [13]): 20; Plant response rating, Ryegrass, Italian [8, 14]: 0; Plant response rating, Ryegrass, Italian [8, 13]: 0 |
